Experimental data published in ChEMBL document CHEMBL5260817, “Polyamine-based analogs and conjugates as antikinetoplastid agents” (Eur J Med Chem, 2017).
One block for each compound: values may come before it.

How the values were obtained:
[1] = system: Trypanosoma brucei rhodesiense; assay: Antiprotozoal activity against Trypanosoma brucei rhodesiense; format: functional, organism-based
[2] = system: Trypanosoma cruzi; assay: Antiprotozoal activity against Trypanosoma cruzi epimastigote at 10 uM relative to control; format: functional
[3] = target: T1, Trypanothione reductase (Trypanosoma cruzi, UniProt P28593); assay: Inhibition of Trypanosoma cruzi TryR assessed as inhibition constant
T1 sequence (P28593 whole entry): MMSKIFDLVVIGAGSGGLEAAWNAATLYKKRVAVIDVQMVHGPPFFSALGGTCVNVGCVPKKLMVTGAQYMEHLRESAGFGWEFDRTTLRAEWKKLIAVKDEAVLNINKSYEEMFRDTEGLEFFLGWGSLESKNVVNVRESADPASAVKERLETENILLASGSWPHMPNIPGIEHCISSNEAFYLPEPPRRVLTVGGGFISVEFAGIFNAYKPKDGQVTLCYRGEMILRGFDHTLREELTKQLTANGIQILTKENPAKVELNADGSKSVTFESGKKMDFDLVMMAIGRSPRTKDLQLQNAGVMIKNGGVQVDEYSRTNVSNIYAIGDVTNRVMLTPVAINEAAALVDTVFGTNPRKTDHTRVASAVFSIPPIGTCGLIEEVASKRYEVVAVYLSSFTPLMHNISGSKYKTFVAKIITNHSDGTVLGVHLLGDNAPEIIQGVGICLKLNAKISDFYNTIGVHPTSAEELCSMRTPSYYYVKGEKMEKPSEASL

[4] = system: Trypanosoma cruzi; assay: Antiprotozoal activity against Trypanosoma cruzi […] strain infected in mouse macrophage cell measured after 3 days; format: functional, organism-based; details: 72 h
[5] = system: Trypanosoma cruzi; assay: Antiprotozoal activity against Trypanosoma cruzi MHOM/BR/OO/Y strain infected in mouse macrophage cell measured after 3 days; format: functional, organism-based; details: 72 h
[6] = system: Leishmania donovani; assay: Antiprotozoal activity against Leishmania donovani MHOM/ET/67/L82 strain infected in mouse macrophage cell measured after 5 days; format: functional, organism-based; details: MHOM/ET/67/L82, Macrophage, 120 h
[7] = system: Trypanosoma brucei; assay: Antitrypanosomal activity against bloodstream Trypanosoma brucei assessed as parasite growth inhibition; format: functional, organism-based
[8] = system: Trypanosoma cruzi; assay: Antiprotozoal activity against Trypanosoma cruzi trypomastigotes assessed as growth inhibition at 1.6 uM relative to control; format: functional
[9] = system: Trypanosoma cruzi; assay: Antiprotozoal activity against Trypanosoma cruzi infected in mouse assessed as survival rate at 10 mg/kg, po administered 3 times daily on day 6 and 7 then twice daily from day 8 to 12; format: functional; details: time 7 day
[10] = target: T1, Trypanothione reductase; assay: Inhibition of Trypanosoma cruzi TryR expressed in escherichia coli in presence of NADPH
[11] = system: Leishmania donovani; assay: Antiprotozoal activity against Leishmania donovani promastigote at 10 uM relative to control; format: functional
[12] = target: T1, Trypanothione reductase; assay: Inhibition of Trypanosoma cruzi TryR assessed as inhibition constant by TR assay
[13] = system: Trypanosoma cruzi; assay: Antiprotozoal activity against Trypanosoma cruzi Y strain epimastigotes; format: functional, organism-based
[14] = system: Syrian golden hamster; assay: In vivo antiprotozoal activity against Leishmania donovani amastigotes in hamster spleen assessed as reduction of amastigotes count measured after 7 days relative to control; format: functional, Mesocricetus auratus; details: time 7 day
[15] = Inhibition of Leishmania infantum TryS in presence of ATP by Malachite green staining based end-point assay
[16] = system: Leishmania infantum; assay: Antiprotozoal activity against Leishmania infantum promastigotes; format: functional, organism-based
[17] = Inhibition of Trypanosoma brucei TryS
[18] = system: Trypanosoma cruzi; assay: Antiprotozoal activity against Trypanosoma cruzi epimastigotes; format: functional, organism-based; details: Trypanosoma cruzi
[19] = Inhibition of Trypanosoma cruzi Fe - Superoxide dismutase
[20] = system: Trypanosoma cruzi; assay: Antiprotozoal activity against Trypanosoma cruzi […] infected in mouse assessed as reduction in curative effect at 15 mg/kg relative to control; format: functional
[21] = system: Trypanosoma cruzi; assay: Antiprotozoal activity against Trypanosoma cruzi […] infected in African green monkey Vero cells assessed as reduction in infection measured after 72 hrs relative to control; format: functional
[22] = system: Trypanosoma cruzi; assay: Antiprotozoal activity against Trypanosoma cruzi […] measured after 72 hrs; format: functional, organism-based
[23] = target: Trypanothione reductase (Trypanosoma brucei brucei, UniProt P39051); assay: Inhibition of Trypanosoma brucei TryR
Trypanothione reductase (Trypanosoma brucei brucei, UniProt P39051), sequence (P39051 whole entry): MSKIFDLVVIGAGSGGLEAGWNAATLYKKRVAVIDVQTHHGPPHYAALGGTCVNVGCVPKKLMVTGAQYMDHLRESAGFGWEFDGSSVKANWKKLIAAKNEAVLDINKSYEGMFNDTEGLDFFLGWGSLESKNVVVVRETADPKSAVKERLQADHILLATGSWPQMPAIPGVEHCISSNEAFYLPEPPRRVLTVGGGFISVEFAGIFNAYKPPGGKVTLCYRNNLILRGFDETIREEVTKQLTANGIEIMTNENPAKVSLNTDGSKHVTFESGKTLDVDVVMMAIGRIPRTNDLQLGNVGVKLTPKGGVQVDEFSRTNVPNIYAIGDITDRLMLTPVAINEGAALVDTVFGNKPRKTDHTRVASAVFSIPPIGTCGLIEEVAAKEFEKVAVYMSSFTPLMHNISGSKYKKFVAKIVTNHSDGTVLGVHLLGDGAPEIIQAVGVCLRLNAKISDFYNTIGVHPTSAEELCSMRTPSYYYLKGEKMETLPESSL

[24] = system: HepG2; assay: Anticancer activity against human HepG2 cells assessed as cell growth inhibition; format: functional, cell-based
[25] = system: Trypanosoma brucei; assay: Antiprotozoal activity against Trypanosoma […] STIB900 strain; format: functional, organism-based
[26] = Inhibition of Fulllength Trypanosoma brucei MetRS expressed in Escherichia coli in presence of ATP
[27] = Anticancer activity against human CRL-8155 cells assessed as cell growth inhibition; format: functional, cell-based; details: CRL8155
[28] = system: Leishmania donovani; assay: Antiprotozoal activity against Leishmania donovani MHOM/IN/1978/UR6 strain promastigotes assessed as parasite growth inhibition; format: functional, organism-based
[29] = system: Leishmania donovani; assay: Antiprotozoal activity against Leishmania donovani WR555 infected in mouse liver assessed as parasite growth inhibition at 10 mg/kg relative to control; format: functional
[30] = system: Leishmania donovani; assay: Antiprotozoal activity against Leishmania donovani WR555 infected in mouse liver assessed as parasite growth inhibition at 15 mg/kg relative to control; format: functional
[31] = system: Leishmania donovani; assay: Antiprotozoal activity against Leishmania donovani WR555 assessed as growth inhibition at 1 uM relative to control; format: functional
[32] = system: Trypanosoma brucei; assay: Trypanocidal activity against Trypanosoma brucei K 243-As-10-3 strain; format: functional, organism-based
[33] = system: Trypanosoma brucei; assay: Trypanocidal activity against Trypanosoma brucei K 269 strain; format: functional, organism-based
[34] = system: Trypanosoma brucei; assay: Trypanocidal activity against Trypanosoma brucei K 243 strain; format: functional, organism-based
[35] = system: Trypanosoma brucei; assay: Trypanocidal activity against Trypanosoma brucei Lab 110 strain; format: functional, organism-based
[36] = system: Trypanosoma cruzi; assay: Antiprotozoal activity against Trypanosoma cruzi infected in mouse Peritoneal macrophage cell assessed as growth inhibition at 0.8 uM measured after 4 days relative to control; format: functional; details: 96 h, time 4 day
[37] = Inhibition of Trypanosoma MetRS
[38] = Inhibition of Trypanosoma brucei MetRS
[39] = system: Trypanosoma brucei; assay: Antiprotozoal activity against Trypanosoma brucei; format: functional, organism-based
[40] = system: Trypanosoma brucei brucei; assay: Antiprotozoal activity against Trypanosoma brucei brucei Lab 110 EATRO strain; format: functional, organism-based
[41] = system: Leishmania donovani; assay: Leishmanicidal activity against Leishmania donovani MHOM/PE/84/LC26; format: functional, organism-based
[42] = system: Leishmania infantum; assay: Leishmanicidal activity against Leishmania infantum MCAN/ES/2001/UCM-10; format: functional, organism-based
[43] = system: Leishmania braziliensis; assay: Leishmanicidal activity against Leishmania braziliensis MHOM/BR/1975/M2904; format: functional, organism-based
[44] = organism: Homo sapiens; assay: Inhibition of Superoxide dismutase (unknown origin) at 100 uM measured after 24 hrs relative to control

Compound: CC1=C(CCCCCC(=O)NCCCCNCCCNC(=O)CCCCCC2=C(C)C(=O)c3ccccc3C2=O)C(=O)c2ccccc2C1=O
IC50 [4]: < 5 µM
IC50 [5]: < 5 µM
IC50 [6]: < 5 µM

Compound: Nc1nc(N)nc(NCCCNCCCCCCCNCCCNCCCNc2nc(N)nc(N)n2)n1
IC50 [7]: 24 µM

Compound: C1CCC(CCCNCCCN2CCN(CCCNCCCC3CCCCC3)CC2)CC1
inhibition at 1.6 µM [8]: 70%

Compound: CN(C)CCCN1CCN(C(=O)Cc2ccccc2)CC1
Activity [9]: 90%

Compound: COc1ccc2nc3cc(Cl)ccc3c(NCCCCCCCCNc3c4ccc(Cl)cc4nc4ccc(OC)nc34)c2c1
inhibition at 10 µM [11]: 42%

Compound: NCCC(=O)CN
IC50 [13]: 1180 µM

Compound: COC(=O)/N=C(\NCCCN1CCOCC1)NC(=O)OC
inhibition (INH) [14]: 80%

Compound: c1ccc(CNCCCNCCCCCCCNCCCNCc2ccccc2)cc1
IC50 [28]: 18 µM
inhibition in vivo at 10 mg/kg [29]: 65%
inhibition in vivo at 15 mg/kg [30]: 99.9%
inhibition at 1 µM [31]: 77%
IC50 [32]: 10 µM
IC50 [33]: 10 µM
IC50 [34]: 10 µM
IC50 [35]: 10 µM

Compound: Clc1ccc(Sc2ccccc2)c(CNCCCN2CCN(CCCNCc3cc(Cl)ccc3Sc3ccccc3)CC2)c1
inhibition at 0.8 µM [36]: 90%

Compound: Fc1ccc2[nH]c(NCCCN[C@@H]3CCNc4c(Cl)cc(Cl)cc43)nc2n1
Ki [37]: 0.002 µM
IC50 [38]: 0.002 µM
Ki [38]: 0.002 µM
IC50 [39]: 0.0004 µM

Compound: CN(CCCNc1c(NCCC[N+](C)(C)C)c(=O)c1=O)CCCNc1c(NCCC[N+](C)(C)C)c(=O)c1=O
IC50 [41]: > 15 µM
IC50 [42]: > 15 µM
IC50 [43]: > 15 µM

Now from value to compound, other results behind:

IC50 [1]: 0.98 µM
Ki [3]: 27 µM
Compound: CN1CCN(CCCNc2cc(Cl)ccc2Sc2ccccc2)CC1
inhibition at 10 µM [2]: 85%

IC50 [10]: > 57 µM
Compound: O=C1NC(=O)C(c2c[nH]c3ccccc23)=C1NCCCNCCCNC1=C(c2c[nH]c3ccccc23)C(=O)NC1=O

Ki [12]: 90 µM
Compound: CN(C)CCNc1cc(Cl)ccc1Sc1ccccc1

IC50 [15]: 0.35 µM
IC50 [16]: 112 µM
Compound: CNCCNC(=O)CN1C(=O)Cc2c([nH]c3ccc(C(F)(F)F)cc23)-c2ccccc21
IC50 [17]: 75 µM

IC50 [18]: 10 µM
Ki [12]: 86 µM
Compound: Clc1ccc(Sc2ccccc2)c(NCCN2CCCC2)c1

IC50 [19]: 18 µM
IC50 [22]: 7 µM
Compound: c1ccc(CN2CCN(Cc3ccccn3)CCN(Cc3ccccn3)CC2)nc1
inhibition in vivo at 15 mg/kg [20]: 33%
inhibition (INH) [21]: 81%

IC50 [23]: 7.5 µM
Compound: CN1CCN(CCCN2c3ccccc3Sc3ccc(Cl)cc32)CC1 [PROCHLORPERAZINE]

IC50 [24]: 13 µM
IC50 [25]: 0.2 µM
Compound: O=C(NCCCNCc1cc(Cl)cc(Cl)c1)Nc1ccsc1
IC50 [26]: 0.028 µM
IC50 [27]: 0.2 µM

IC50 [40]: 0.002 µM
Compound: N=C(N)c1ccc(N2CCCN(c3ccc(C(=N)N)cc3)CC2)cc1

inhibition [44]: 80%
Compound: O=C(NCCCCCCNC(=O)c1cccc(O)c1O)c1cccc(O)c1O
